Each structure is given as a SMILES string.

One data set has as its system P. acnes. Briefly: Selective anti-bacterial test, count of germs after shaking culture with sample. Particulars: count of germs in control group without sample defined as 100%; shaking culture at 32° C. for one day. It counts as cell-based, Propionibacterium acnes. As for the experimental part:
(§1) Each sample was added to an aqueous solution of 1% peptone and sterilized. 20 μl/ml of a test germ solution was injected into the sample-containing sterilized aqueous solution of peptone and then subjected to shaking culture at 32° C. for one day. The test germs selected were P. acnes known as present in the skin and harmful to the skin and S. Epidermidis known as relatively harmless to the skin. The solution after the shaking culture was diluted to 1/100 with normal diluting water. 0.1 ml of the diluted solution was placed on a Petri dish and then […]. To the diluted solution was poured TS agar cooled down to about 50° C. The Petri dish hardened with the TS agar was subjected to anaerobic culture at 35° C. for one day to measure the count of the germs. The P. acnes group was subjected to anaerobic culture at 35° C. for one day and then diluted to 1/100 with normal diluting water. 0.1 ml of the diluted solution was placed on a Petri dish, hardened with BHI agar, and subjected to anaerobic culture at 35° C. for 3 days to count the germs. As comparative groups, theanine and maltose were used for the testing. The count of germs in the control group without containing the sample was defined as 100%.
`OC[C@H]1O[C@H](O[C@H]2[C@H](O)[C@@H](O)C(O)O[C@@H]2CO)[C@H](O)[C@@H](O)[C@@H]1O` (mixture of isomers) [Maltose, maltose, reference compound]: the “P. acnes (%) count of germs” value turned out to be 110%.
Still for that read-out and setting: under `CCNC(=O)CC[C@H](NCC1(O)OC[C@@H](O)C(O[C@H]2O[C@H](CO)[C@@H](O)[C@H](O)[C@H]2O)[C@@H]1O)C(=O)O` (stereo partly shown) [Example 1, Maltulosyl Theanine] stands 9%; under `CCNC(=O)CC[C@H](NCC1(O)OC[C@@H](O)C(O[C@H]2O[C@H](CO)[C@@H](O)[C@H](O)[C@H]2O)[C@@H]1O)C(=O)OC` (stereo partly shown) [Example 2, Maltulosyl Theanine Methyl Ester], 27%.
As to `CCN(CC)C(=O)CC[C@H](NCC1(O)OC[C@@H](O)C(O[C@H]2O[C@H](CO)[C@@H](O)[C@H](O)[C@H]2O)[C@@H]1O)C(=O)O` (stereo partly shown) [Example 3, Maltulosyl N-Ethyl Theanine], the “P. acnes (%) count of germs” value was found to be 15%.
As to `CCNC(=O)CC[C@H](N)C(=O)O` [Theanine, theanine], the “P. acnes (%) count of germs” value worked out at 50%.

Still in this data set, the particulars now being: summary of Table 1.
Regarding `CCNC(=O)CC[C@H](NCC1(O)OC[C@@H](O)C(O[C@H]2O[C@H](CO)[C@@H](O)[C@H](O)[C@H]2O)[C@@H]1O)C(=O)O` (stereo partly shown) [Example 1, Maltulosyl Theanine], the “change in the count of P. acnes (in words)” value is “reduced count”.
The same measure, in the same setting: under `CCNC(=O)CC[C@H](NCC1(O)OC[C@@H](O)C(O[C@H]2O[C@H](CO)[C@@H](O)[C@H](O)[C@H]2O)[C@@H]1O)C(=O)OC` (stereo partly shown) [Example 2, Maltulosyl Theanine Methyl Ester] stands “reduced count”.
The same measure, in the same setting: under `CCN(CC)C(=O)CC[C@H](NCC1(O)OC[C@@H](O)C(O[C@H]2O[C@H](CO)[C@@H](O)[C@H](O)[C@H]2O)[C@@H]1O)C(=O)O` (stereo partly shown) [Example 3, Maltulosyl N-Ethyl Theanine] stands “reduced count”.

The test system of a further data set is S. Epidermidis. The data set is described as above. It counts as cell-based. Particulars: count of germs in control group without sample defined as 100%; shaking culture at 32° C. for one day. As to the method:
as §1
For the molecule `OC[C@H]1O[C@H](O[C@H]2[C@H](O)[C@@H](O)C(O)O[C@@H]2CO)[C@H](O)[C@@H](O)[C@@H]1O` (mixture of isomers) [Maltose, maltose, reference compound], the “S. Epidermidis (%) count of germs” value was 89%.
Still for that read-out and setting: to `CCNC(=O)CC[C@H](NCC1(O)OC[C@@H](O)C(O[C@H]2O[C@H](CO)[C@@H](O)[C@H](O)[C@H]2O)[C@@H]1O)C(=O)O` (stereo partly shown) [Example 1, Maltulosyl Theanine] belongs 83%.
For the molecule `CCNC(=O)CC[C@H](NCC1(O)OC[C@@H](O)C(O[C@H]2O[C@H](CO)[C@@H](O)[C@H](O)[C@H]2O)[C@@H]1O)C(=O)OC` (stereo partly shown) [Example 2, Maltulosyl Theanine Methyl Ester], the “S. Epidermidis (%) count of germs” value is 93%.
Still for that read-out and setting: under `CCN(CC)C(=O)CC[C@H](NCC1(O)OC[C@@H](O)C(O[C@H]2O[C@H](CO)[C@@H](O)[C@H](O)[C@H]2O)[C@@H]1O)C(=O)O` (stereo partly shown) [Example 3, Maltulosyl N-Ethyl Theanine] stands 86%.
Still for that read-out and setting: under `CCNC(=O)CC[C@H](N)C(=O)O` [Theanine, theanine] stands 98%.

The same data set, now with this note: summary of Table 1.
Turning to `CCNC(=O)CC[C@H](NCC1(O)OC[C@@H](O)C(O[C@H]2O[C@H](CO)[C@@H](O)[C@H](O)[C@H]2O)[C@@H]1O)C(=O)O` (stereo partly shown) [Example 1, Maltulosyl Theanine], the “change in the count of S. Epidermidis (in words)” value was “no significant change”.
Still for that read-out and setting: to `CCNC(=O)CC[C@H](NCC1(O)OC[C@@H](O)C(O[C@H]2O[C@H](CO)[C@@H](O)[C@H](O)[C@H]2O)[C@@H]1O)C(=O)OC` (stereo partly shown) [Example 2, Maltulosyl Theanine Methyl Ester] belongs “no significant change”; to `CCN(CC)C(=O)CC[C@H](NCC1(O)OC[C@@H](O)C(O[C@H]2O[C@H](CO)[C@@H](O)[C@H](O)[C@H]2O)[C@@H]1O)C(=O)O` (stereo partly shown) [Example 3, Maltulosyl N-Ethyl Theanine], “no significant change”.

Test system in another data set: not listed separately
Briefly: Primary skin irritation test (closed patch test). It counts as in vivo, human. As to conditions: average score on scale 0 (None) to 4 (Extreme); aqueous solution, closed patch on lower arm, 20 subjects, after one day. From the text: An aqueous solution of each theanine derivative of examples 1, 2 and 3 was applied on the lower part of the arm of 20 healthy male and female subjects according to the closed patch test method. The arm was covered with a plastic cap to block external stimuli. All numeral designations in Table 3 are averages of the irritations calculated according to the evaluation method of Table 2. [table]
`CCNC(=O)CC[C@H](NCC1(O)OC[C@@H](O)C(O[C@H]2O[C@H](CO)[C@@H](O)[C@H](O)[C@H]2O)[C@@H]1O)C(=O)O` (stereo partly shown) [Example 1, Maltulosyl Theanine]: the “Extent of Skin Irritation” value turned out to be 0.1.
Still for that read-out and setting: to `CCNC(=O)CC[C@H](NCC1(O)OC[C@@H](O)C(O[C@H]2O[C@H](CO)[C@@H](O)[C@H](O)[C@H]2O)[C@@H]1O)C(=O)OC` (stereo partly shown) [Example 2, Maltulosyl Theanine Methyl Ester] belongs 0.2; to `CCN(CC)C(=O)CC[C@H](NCC1(O)OC[C@@H](O)C(O[C@H]2O[C@H](CO)[C@@H](O)[C@H](O)[C@H]2O)[C@@H]1O)C(=O)O` (stereo partly shown) [Example 3, Maltulosyl N-Ethyl Theanine], 0.1.

Still in this data set, the particulars now being: summary of Table 3.
Take `CCNC(=O)CC[C@H](NCC1(O)OC[C@@H](O)C(O[C@H]2O[C@H](CO)[C@@H](O)[C@H](O)[C@H]2O)[C@@H]1O)C(=O)O` (stereo partly shown) [Example 1, Maltulosyl Theanine]: the “safety to the skin (in words)” value was “safe to the skin”.
Still for that read-out and setting: under `CCNC(=O)CC[C@H](NCC1(O)OC[C@@H](O)C(O[C@H]2O[C@H](CO)[C@@H](O)[C@H](O)[C@H]2O)[C@@H]1O)C(=O)OC` (stereo partly shown) [Example 2, Maltulosyl Theanine Methyl Ester] stands “safe to the skin”; under `CCN(CC)C(=O)CC[C@H](NCC1(O)OC[C@@H](O)C(O[C@H]2O[C@H](CO)[C@@H](O)[C@H](O)[C@H]2O)[C@@H]1O)C(=O)O` (stereo partly shown) [Example 3, Maltulosyl N-Ethyl Theanine], “safe to the skin”.

The record behind these values is patent US8557793B2, “Theanine derivative, preparation method thereof, and use thereof for alleviating acne” (Amorepacific Corporation, priority 2010, dated 2013).
